Data published in PubChem BioAssay AID1259407 (Chemical Carcinogenesis Research Information System (CCRIS), 2018).
Activity calls are given as the source filed them. The rule behind the calls is not given here.

System: CCRIS mutagenicity, Ames/micronucleus/aberration tests
Experiment: CCRIS mutagenicity studies
[1] = Test System: AMES SALMONELLA TYPHIMURIUM, Strain/Indicator: TA98, Metabolic Activation: NONE, Method: STANDARD PLATE
[2] = Test System: AMES SALMONELLA TYPHIMURIUM, Strain/Indicator: TA100, Metabolic Activation: NONE, Method: STANDARD PLATE
[3] = Test System: AMES SALMONELLA TYPHIMURIUM, Strain/Indicator: TA100, Metabolic Activation: NONE, Method: PREINCUBATION
[4] = Test System: AMES SALMONELLA TYPHIMURIUM, Strain/Indicator: TA98, Metabolic Activation: NONE, Method: PREINCUBATION
[5] = Test System: AMES SALMONELLA TYPHIMURIUM, Strain/Indicator: TA102, Metabolic Activation: NONE, Method: PREINCUBATION
[6] = Test System: AMES SALMONELLA TYPHIMURIUM, Strain/Indicator: TA97, Metabolic Activation: NONE, Method: PREINCUBATION
[7] = Test System: AMES SALMONELLA TYPHIMURIUM, Strain/Indicator: TA97, Metabolic Activation: RAT, LIVER, S-9, AROCLOR 1254, Method: PREINCUBATION
[8] = Test System: AMES SALMONELLA TYPHIMURIUM, Strain/Indicator: TA102, Metabolic Activation: RAT, LIVER, S-9, AROCLOR 1254, Method: PREINCUBATION

For `ClC1=C(Cl)[C@]2(Cl)C3C(Cl)C(Cl)CC3[C@@]1(Cl)C2(Cl)Cl` (stereo not given in full), the mutagenic call (Test System: AMES SALMONELLA TYPHIMURIUM, Strain/Indicator: TA100, Metabolic Activation: NONE, Method: DESICCATOR) was “active; positive”.
With `O=[N+]([O-])c1ccc(-c2cscn2)o1` the mutagenic call (Test System: AMES SALMONELLA TYPHIMURIUM, Strain/Indicator: TA100, Metabolic Activation: RAT, LIVER, S-9, KC500 OR PHENOBARBITAL, Method: LIQUID SUSPENSION) was “active; positive”.
`ONc1ccc(Sc2ccccc2)cc1` was tested, and the mutagenic call (Test System: AMES SALMONELLA TYPHIMURIUM, Strain/Indicator: TA98(1,8-DNP6), Metabolic Activation: NONE, Method: STANDARD PLATE) was “active; positive”, the mutagenic call (Test System: AMES SALMONELLA TYPHIMURIUM, Strain/Indicator: TA98(NR), Metabolic Activation: NONE, Method: STANDARD PLATE) was “active; positive” and the mutagenic call [1] was “active; positive”.
With `O=C1C=Cc2ccc3c4c(ccc1c24)C(=O)c1ccccc1-3` the mutagenic call (Test System: CHINESE HAMSTER V-79, Strain/Indicator: V-79/8-AZAGUANINE, Metabolic Activation: NONE, Method: STANDARD PLATE) was “active; positive”.
In the case of `CC(C)CN(N)CC(C)C`, the mutagenic call [2] was “active; positive”, the mutagenic call (Test System: AMES SALMONELLA TYPHIMURIUM, Strain/Indicator: TA100, Metabolic Activation: RAT, LIVER, S-9, AROCLOR 1254, Method: STANDARD PLATE) was “active; positive” and the mutagenic call (Test System: AMES SALMONELLA TYPHIMURIUM, Strain/Indicator: TA102, Metabolic Activation: NONE, Method: STANDARD PLATE) was “inactive; negative”. The mutagenic call (Test System: AMES SALMONELLA TYPHIMURIUM, Strain/Indicator: TA102, Metabolic Activation: RAT, LIVER, S-9, AROCLOR 1254, Method: STANDARD PLATE) was “inactive; negative”.
In the case of `Cc1cnc2c(C)cc3c(nc(N)n3C)c2n1`, the mutagenic call (Test System: AMES SALMONELLA TYPHIMURIUM, Strain/Indicator: TA98, Metabolic Activation: RAT, LIVER, S-9, AROCLOR 1254, Method: STANDARD PLATE) was “active; positive”.
With `CC(=O)C[C@@H]1CCC(=O)CCC(=O)O[C@H](CC(C)=O)CCC(=O)CCC(=O)O1` the mutagenic call (Test System: CHINESE HAMSTER V-79, Strain/Indicator: V-79 (HPRT)/6-THIOGUANINE, Metabolic Activation: NONE) was “inactive; negative”.
With `CC(Br)C(N)=O` (stereo not given) the mutagenic call (Test System: AMES SALMONELLA TYPHIMURIUM, Strain/Indicator: TA100, Metabolic Activation: MOUSE, LIVER, S-9, AROCLOR 1254, Method: STANDARD PLATE) was “active; positive” and the mutagenic call [2] was “active; positive”.
`Cc1cc(=O)oc2ccc3c(c12)C1(C)OOC1(C)O3` (stereo not given) was tested, and the mutagenic call [3] was “active; positive”.
With `Cc1c2ccccc2cc2c3c(ccc12)C(=O)C(=O)C=C3` the mutagenic call (Test System: AMES SALMONELLA TYPHIMURIUM, Strain/Indicator: TA97A, Metabolic Activation: NONE, Method: PREINCUBATION) was “active; positive”, the mutagenic call [4] was “inactive; negative” and the mutagenic call [3] was “inactive; negative”. The mutagenic call [5] was “inactive; negative” and the mutagenic call (Test System: AMES SALMONELLA TYPHIMURIUM, Strain/Indicator: TA104, Metabolic Activation: NONE, Method: PREINCUBATION) was “inactive; negative”.
`CC(=O)OCc1c(O)c(C(=O)O)c(C)c2c1OC(=O)c1c(C)cc(O)c(C=O)c1O2` was tested, and the mutagenic call [4] was “inactive; negative”, the mutagenic call [1] was “inactive; negative” and the mutagenic call (Test System: AMES SALMONELLA TYPHIMURIUM, Strain/Indicator: TA98, Metabolic Activation: RAT, LIVER, S-9, Method: PREINCUBATION) was “inactive; negative”. The mutagenic call (Test System: AMES SALMONELLA TYPHIMURIUM, Strain/Indicator: TA98, Metabolic Activation: RAT, LIVER, S-9, Method: STANDARD PLATE) was “inactive; negative”, the mutagenic call [3] was “active; positive” and the mutagenic call [2] was “inactive; negative”. For the same compound, the mutagenic call (Test System: AMES SALMONELLA TYPHIMURIUM, Strain/Indicator: TA100, Metabolic Activation: RAT, LIVER, S-9, Method: PREINCUBATION) was “active; positive” and the mutagenic call (Test System: AMES SALMONELLA TYPHIMURIUM, Strain/Indicator: TA100, Metabolic Activation: RAT, LIVER, S-9, Method: STANDARD PLATE) was “active; positive”.
`C1=Cc2c3ccc4cccc5ccc(c6cccc1c26)c3c45` was tested, and the mutagenic call (Test System: AMES SALMONELLA TYPHIMURIUM, Strain/Indicator: TA98, Metabolic Activation: RAT, LIVER, S-9, AROCLOR 1254 (0.55 MG), Method: STANDARD PLATE) was “active; positive”, the mutagenic call (Test System: AMES SALMONELLA TYPHIMURIUM, Strain/Indicator: TA100, Metabolic Activation: RAT, LIVER, S-9, AROCLOR 1254 (0.55 MG), Method: STANDARD PLATE) was “active; positive” and the mutagenic call (Test System: AMES SALMONELLA TYPHIMURIUM, Strain/Indicator: TA104, Metabolic Activation: RAT, LIVER, S-9, AROCLOR 1254 (0.55 MG), Method: STANDARD PLATE) was “active; positive”. For the same compound, the mutagenic call (Test System: AMES SALMONELLA TYPHIMURIUM, Strain/Indicator: TA1535, Metabolic Activation: RAT, LIVER, S-9, AROCLOR 1254 (0.55 MG), Method: STANDARD PLATE) was “inactive; negative”, the mutagenic call (Test System: AMES SALMONELLA TYPHIMURIUM, Strain/Indicator: TA1537, Metabolic Activation: RAT, LIVER, S-9, AROCLOR 1254 (0.55 MG), Method: STANDARD PLATE) was “active; positive” and the mutagenic call (Test System: AMES SALMONELLA TYPHIMURIUM, Strain/Indicator: TA1538, Metabolic Activation: RAT, LIVER, S-9, AROCLOR 1254 (0.55 MG), Method: STANDARD PLATE) was “active; positive”.
With `COc1ccc2cc1Oc1ccc(cc1)C[C@H]1c3c(cc4c(c3Oc3cc5c(cc3OC)CCN(C)[C@@H]5C2)OCO4)CCN1C` the mutagenic call [4] was “inactive; negative”, the mutagenic call (Test System: AMES SALMONELLA TYPHIMURIUM, Strain/Indicator: TA98, Metabolic Activation: RAT LIVER S-9, PHENOBARBITAL, 5,6-BENZOFLAVONE, Method: PREINCUBATION) was “active; positive” and the mutagenic call [3] was “inactive; negative”. The mutagenic call (Test System: AMES SALMONELLA TYPHIMURIUM, Strain/Indicator: TA100, Metabolic Activation: RAT LIVER S-9, PHENOBARBITAL, 5,6-BENZOFLAVONE, Method: PREINCUBATION) was “active; positive”, the mutagenic call (Test System: AMES SALMONELLA TYPHIMURIUM, Strain/Indicator: TA1535, Metabolic Activation: NONE, Method: PREINCUBATION) was “inactive; negative” and the mutagenic call (Test System: AMES SALMONELLA TYPHIMURIUM, Strain/Indicator: TA1535, Metabolic Activation: RAT LIVER S-9, PHENOBARBITAL, 5,6-BENZOFLAVONE, Method: PREINCUBATION) was “active; positive”. The mutagenic call (Test System: AMES SALMONELLA TYPHIMURIUM, Strain/Indicator: TA1537, Metabolic Activation: NONE, Method: PREINCUBATION) was “inactive; negative”, the mutagenic call (Test System: AMES SALMONELLA TYPHIMURIUM, Strain/Indicator: TA1537, Metabolic Activation: RAT LIVER S-9, PHENOBARBITAL, 5,6-BENZOFLAVONE, Method: PREINCUBATION) was “active; positive” and the mutagenic call (Test System: ESCHERICHIA COLI, Strain/Indicator: WP2 UVR A, Metabolic Activation: NONE, Method: PREINCUBATION) was “inactive; negative”. For the same compound, the mutagenic call (Test System: ESCHERICHIA COLI, Strain/Indicator: WP2 UVR A, Metabolic Activation: RAT LIVER S-9, PHENOBARBITAL, 5,6-BENZOFLAVONE, Method: PREINCUBATION) was “inactive; negative” and the mutagenic call (Test System: UDS RAT HEPATOCYTES, Strain/Indicator: THYMIDINE INCORPORATION, Metabolic Activation: NONE, Method: AUTORADIOGRAPHY) was “active; positive”.
`BrCc1c2ccccc2cc2ccccc12` was tested, and the mutagenic call [1] was “active; positive” and the mutagenic call [2] was “active; positive”.
With `C=C1C[C@@]23CC[C@H]4[C@@](C)(CCC[C@@]4(C)C(=O)O)[C@@H]2CC[C@]1(O[C@@H]1O[C@H](CO)[C@@H](O)[C@H](O[C@@H]2O[C@H](CO)[C@@H](O)[C@H](O)[C@H]2O)[C@H]1O[C@@H]1O[C@H](CO)[C@@H](O)[C@H](O)[C@H]1O)C3` the mutagenic call (Test System: AMES SALMONELLA TYPHIMURIUM, Strain/Indicator: TM677, Metabolic Activation: RAT, LIVER, S-9, AROCLOR 1254, Method: PREINCUBATION) was “inactive; negative”.
For `CC(N)[13C](=O)O` (stereo not given), the mutagenic call [6] was “inactive; negative”, the mutagenic call [7] was “inactive; negative” and the mutagenic call [5] was “inactive; negative”. For the same compound, the mutagenic call [8] was “inactive; negative”.
For `Cc1[nH]ccc2c1[nH]c1cc(=O)ccc12`, the mutagenic call [6] was “active; positive”, the mutagenic call [7] was “inactive; negative” and the mutagenic call [4] was “inactive; negative”. The mutagenic call (Test System: AMES SALMONELLA TYPHIMURIUM, Strain/Indicator: TA98, Metabolic Activation: RAT, LIVER, S-9, AROCLOR 1254, Method: PREINCUBATION) was “inactive; negative”, the mutagenic call [3] was “inactive; negative” and the mutagenic call (Test System: AMES SALMONELLA TYPHIMURIUM, Strain/Indicator: TA100, Metabolic Activation: RAT, LIVER, S-9, AROCLOR 1254, Method: PREINCUBATION) was “inactive; negative”. For the same compound, the mutagenic call [5] was “inactive; negative” and the mutagenic call [8] was “inactive; negative”.
